Measurements from US7795505B2, “Herbicide-resistance gene and utilization thereof” (Hokko Chemical Industry Co., Ltd., priority 2004, dated 2010).

Legend:
[1] = system: enzyme capable of acetylating PPT of Streptomyces sp. AB3534 strain (pUC18-B2); assay: Acetylation reaction with crude enzyme solution from E. coli transformed with pUC18-B2 (absorbance at 412 nm); assay type: biochemical; settings: substrate specificity, vector pUC18-B2 (present invention)
Experimental: (§1) Escherichia coli transformed with pUC18-B2 having the herbicide-resistance gene of the present invention was inoculated into a liquid medium containing 50 ml of LB medium and 50 mg/L ampicillin, and cultured at 37° C. for 1 hour, and 50 μl of a 1 M thiogalactopyranoside solution was added to the culture solution, followed by culture at 37° C. for 3 hours. After completion of the culture, the culture solution was centrifuged at 5,000 rpm for 15 minutes to collect bacterial cells, and the cells were washed once with physiological saline. Then, the washed bacterial cells were suspended in 2 ml of a 20 mM Trisbuffer (pH 8.0) solution and disrupted by ultrasonic waves at 4° C. The solution was centrifuged at 15,000 rpm for 15 minutes to collect the supernatant. The supernatant was diluted 10-fold with 20 mM Tris buffer (pH 8.0) to prepare a crude enzyme solution. Then, 2 μl of the crude solution was added to 98 μl of a reaction solution, and the mixture was allowed to react at 28° C. for 1 hour, followed by measurement of the absorbance at 412 nm to measure the acetylation reaction. […]
(§2) The optimum pH and substrate specificity (Km value) to PPT and a structural homologue thereof, methionine sulfone (MS) were measured, and the results are shown in Table 2.

[2] = system: enzyme capable of acetylating PPT derived from actinomycete AB2253 strain (pUC19-AB); assay: Acetylation reaction with crude enzyme solution from E. coli transformed with pUC19-AB; assay type: biochemical; settings: substrate specificity, vector pUC19-AB (control)
Experimental: as §1, §2

[3] = system: Escherichia coli transformed with pUC18-B1; assay: Growth on M9 agar medium containing bialaphos; assay type: cell-based; settings: 1 mM IPTG, 10 mg/L bialaphos
Experimental: The about 1.2-kb EcoRI-BglII fragment that had been confirmed to have a bialaphos-resistance gene was ligated to the EcoRI-BamHI site of a commercially available plasmid vector pUC18, and the resultant plasmid was introduced into Escherichia coli, to thereby yield a transformed Escherichia coli strain having a resistance to bialaphos. A deletion plasmid was prepared by using the SmaI site in the about 1.2-kb EcoRI, BglII fragment and was used to transform Escherichia coli, and as a result, the herbicide-resistance gene of the present invention was confirmed to be present on an about 0.6-kb EcoRI-SmaI fragment. 2 μg of the hybrid plasmid pBRB1 was cleaved with restriction enzymes EcoRI and BglII (20 units each) at 37° C. for 2 hours and subjected to agarose electrophoresis, and only a 1.2 kb-fragment was cut and purified using GeneClean. On the other hand, 2 μg of the plasmid pUC18 was cleaved with EcoRI and BamHI (20 units each) at 37° C. for 2 hours, and the fragments were purified using GeneClean (manufactured by Bio101). […]
That is, the plasmid pUC18-B1 was cleaved with restriction enzymes EcoRI and SmaI (20 units each) at 37° C. for 2 hours and subjected to agarose electrophoresis, and only a 0.6 kb-fragment was cut and purified using GeneClean. […] The nucleotide sequence was determined by custom DNA sequencing service (Hokkaido System Science Co., Ltd.).

[4] = system: Escherichia coli transformed with pUC18-B2; assay: Growth on M9 agar medium containing bialaphos; assay type: cell-based; settings: 1 mM IPTG, 10 mg/L bialaphos
Experimental: That is, the plasmid pUC18-B1 was cleaved with restriction enzymes EcoRI and SmaI (20 units each) at 37° C. for 2 hours and subjected to agarose electrophoresis, and only a 0.6 kb-fragment was cut and purified using GeneClean. On the other hand, 2 μg of the plasmid pUC18 was cleaved with EcoRI and SmaI (20 units each) at 37° C. for 2 hours, and the fragments were purified using GeneClean (manufactured by Bio101). The DNA fragments were allowed to react using Takara Ligation kit at 16° C. for 3 hours, to thereby yield a solution of the plasmid pUC18-B2 obtained by integrating the about 0.6-kb EcoRI, SmaI-cleaved DNA fragment derived from pBRB1 into the EcoRI, SmaI-cleaved DNA fragment of the plasmid pUC18. […] The nucleotide sequence was determined by custom DNA sequencing service (Hokkaido System Science Co., Ltd.).

[5] = system: Streptomyces lividans introduced with hybrid plasmid pBRB1; assay: Bialaphos resistance of transformants; assay type: cell-based; settings: all transformants with pBRB1
Experimental: The hybrid plasmid mixture thus obtained was used to transform a protoplast of Streptomyces lividans. The protoplast was regenerated, and then transformed strains having a bialaphos resistance were selected on a selective medium containing 10 mg/L bialaphos. The Streptomyces lividans used above as a host is a bacterial strain obtained by removing a plasmid pIJ703 from Streptomyces lividans 3131 by protoplastization and regeneration. Streptomyces lividans 3131 was obtained from Department of Antibiotics, National Institute of Health in 1985 (“The Journal of Antibiotics” 1985, vol. 38, pp. 390-400). […]
From the resultant two bialaphos-resistant strains, plasmids were extracted in accordance with a known method (“Current Topics in Microbiology and Immunology” 1982, vol. 96, pp. 69). […] These plasmids derived from the two strains were separately cleaved with a restriction enzyme BglII and analyzed by agarose electrophoresis. In both cases, the electrophoresis detected not only the DNA fragment of pIJ703 used in the vector but also an about 5.7-kb DNA fragment. […]

[6] = system: CP(=O)(O)CC[C@H](N)C(=O)O; assay: cells, lysate or membranes named; settings: other: substrate specificity; crude enzyme, vector pUC19-SH (control); pH 8.0
Experimental: as §1, §2

Molecule: CP(=O)(O)CC[C@H](N)C(=O)O (racemic) [PPT, phosphinothricin]
- Km [1]: 2.46 mM
- Km [2]: 14.3 mM

Molecule: CS(=O)(=O)CC[C@H](N)C(=O)O [MS, methionine sulfone]
- Km [1]: 13 mM
- Km [2]: 2.2 mM

Molecule: C[C@H](NC(=O)[C@H](C)NC(=O)[C@@H](N)CCP(C)(=O)O)C(=O)O [bialaphos]
- growth on medium containing bialaphos [3]: found to grow
- growth on medium containing bialaphos [4]: found to grow
- resistance of transformants to bialaphos [5]: all the resultant transformants were found to have a resistance to bialaphos

Molecule: enzyme capable of acetylating PPT derived from Streptomyces hygroscopicus (pUC19-SH) (Streptomyces hygroscopicus)
- Km [6]: 0.09 mM
